Laboratory results as given in patent US10143771B2, “Antioxidant and antimicrobial wound dressing materials” (KCI USA, Inc., priority 2003, dated 2018).

Tests used:
[1] = tested on: Pseudomonas aeruginosa (ATCC 27853 and various PSI strains); test: Zone of inhibition test, Procedure 2; assay type: cell-based; settings: Pseudomonas aeruginosa on DSA plates, 37° C., over the test period (every 24 hours for 72 hours)
Experimental: (§1) Six 2 cm×2 cm squares of each sample are cut out in sterile conditions. On day one of the experiment, cultures of both Pseudomonas aeruginosa (ATCC 27853 and various PSI strains) and Staphylococcus aureus (provided by the Dept of Clinical Microbiology and Pathology) are incubated aerobically at 37° C. for 24 hours on Diagnostic Sensitivity Agar (DSA). After 24 hours test samples are each placed on a DSA plate and immediately wetted with 0.5 mls of a buffer solution. Three squares of sample are placed on plates inoculated with Pseudomonas aeruginosa and three are placed on plates inoculated with Staphylococcus aureus. The plates are then incubated at 37° C. for 24 hours. The zone of inhibited growth around the sample is then measured using calipers, and the test sample is placed on a new inoculated DSA plate. A swab test is carried out on the area beneath the sample to determine if the sample is bacteriostatic if not bactericidal by smearing the swab on a DSA plate and incubating it for 24 hours and then examining the growth.

Staphylococcus aureus = test: Zone of inhibition test, Procedure 2; assay type: cell-based; settings: Staphylococcus aureus on DSA plates, 37° C., over the test period (every 24 hours for 72 hours)
Experimental: as §1

SMILES: O=[N+]([O-])[O-].[Ag+] [silver nitrate solution (0.5%), silver nitrate]
- zone of inhibition [1]: zones of inhibition were observed
- zone of inhibition (Staphylococcus aureus): zones of inhibition were observed
